Reference: US6020366A, “Butyric acid matrix metalloproteinase inhibitors” (priority 1998, dated 2000)
pIC50: −log10 of the molar value.

What was measured:
Type in all cases: biochemical
[1] = biological target: T1, full-length gelatinase B (FLGB) (Homo sapiens, UniProt P14780); assay: inhibition of full-length gelatinase B hydrolysis of thiopeptolide
T1 construct: full-length gelatinase B (FLGB) hydrolysis of thiopeptolide
Source text: (§1) The invention compounds have been evaluated in standard in vitro assays and shown to be potent inhibitors of several matrix metalloproteinase enzymes.
(§2) The compounds were additionally evaluated for their ability to inhibit full-length collagenase hydrolysis of thiopeptolide substrate (FLC) and full-length gelatinase B (FLGB) hydrolysis of thiopeptolide.

[2] = biological target: MMP-3 (stromelysin) (Homo sapiens, UniProt P08254); assay: inhibition of MMP-3 hydrolysis of thiopeptolide substrate; conditions: thiopeptolide substrate, pH 6.0, 22° C.; read-out: (IC50) MMP-3
Source text: The assays measure the amount by which a test compound reduces the hydrolysis of a thiopeptolide substrate caused by a matrix metalloproteinase enzyme. Such assays are described in detail by Ye, et al., in Biochemistry, 1992;31(45):11231-11235).
Thiopeptolide substrates show virtually no decomposition or hydrolysis in the absence of a matrix metalloproteinase enzyme. A typical thiopeptolide substrate commonly utilized for assays is Ac-Pro-Leu-Gly-thioester-Len-Len-Gly-O Et. […] Assays are carried out with and without matrix metalloproteinase inhibitor compounds, and the amount of hydrolysis is compared for a determination of inhibitory activity of the test compounds.
In the table, MMP-1 refers to interstitial collagenase; MMP-2 refers to Gelatinase A; MMP-3 refers to stromelysin; MMP-7 refers to matrilysin; and MMP-13 refers to Collagenase 3.

[3] = biological target: MMP-13 (Collagenase 3) (Homo sapiens, UniProt P45452); assay: inhibition of MMP-13 hydrolysis of thiopeptolide substrate; conditions: thiopeptolide substrate, pH 6.0, 22° C.; read-out: (IC50) MMP-13
Source text: as §1

[4] = biological target: T2, full-length collagenase (FLC) (Homo sapiens, UniProt P03956); assay: inhibition of full-length collagenase hydrolysis of thiopeptolide substrate
T2 construct: full-length collagenase hydrolysis of thiopeptolide substrate (FLC)
T2 sequence (P03956 100-469): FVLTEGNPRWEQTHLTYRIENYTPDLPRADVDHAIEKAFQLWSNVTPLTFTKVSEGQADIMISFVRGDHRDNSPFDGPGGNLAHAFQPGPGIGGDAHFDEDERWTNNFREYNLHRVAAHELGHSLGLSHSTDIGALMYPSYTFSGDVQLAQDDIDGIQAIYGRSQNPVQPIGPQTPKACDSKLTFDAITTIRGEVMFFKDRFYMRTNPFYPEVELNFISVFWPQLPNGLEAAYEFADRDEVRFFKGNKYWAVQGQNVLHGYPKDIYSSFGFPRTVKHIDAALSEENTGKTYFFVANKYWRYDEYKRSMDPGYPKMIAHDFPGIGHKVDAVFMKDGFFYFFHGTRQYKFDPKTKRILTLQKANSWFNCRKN
Source text: as §1, §2

[5] = biological target: T3, MMP-2 (Gelatinase A) (Homo sapiens, UniProt P08253); assay: inhibition of MMP-2 hydrolysis of thiopeptolide substrate; conditions: thiopeptolide substrate, pH 6.0, 22° C.; read-out: (IC50) MMP-2
T3 sequence (P08253 110-660): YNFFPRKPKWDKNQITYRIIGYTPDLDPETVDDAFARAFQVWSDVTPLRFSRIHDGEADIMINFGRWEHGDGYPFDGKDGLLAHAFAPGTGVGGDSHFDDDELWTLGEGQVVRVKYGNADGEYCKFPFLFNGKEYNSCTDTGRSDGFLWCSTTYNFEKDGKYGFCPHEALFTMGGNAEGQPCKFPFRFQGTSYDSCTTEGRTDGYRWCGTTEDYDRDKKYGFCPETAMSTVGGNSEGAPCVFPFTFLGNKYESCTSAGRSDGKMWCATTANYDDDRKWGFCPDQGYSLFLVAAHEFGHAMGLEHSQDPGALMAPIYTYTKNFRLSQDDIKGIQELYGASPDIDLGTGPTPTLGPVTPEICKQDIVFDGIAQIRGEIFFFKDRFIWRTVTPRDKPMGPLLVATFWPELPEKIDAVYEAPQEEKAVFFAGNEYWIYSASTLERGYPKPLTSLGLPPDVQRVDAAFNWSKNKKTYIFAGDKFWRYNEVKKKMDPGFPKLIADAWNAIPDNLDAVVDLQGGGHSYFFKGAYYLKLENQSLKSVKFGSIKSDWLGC

[6] = biological target: T4, MMP-1 (interstitial collagenase) (Homo sapiens, UniProt P03956); assay: inhibition of MMP-1 hydrolysis of thiopeptolide substrate; conditions: pH 6.0, 22° C.
T4 sequence (P03956 100-469): T2 sequence (P03956 100-469)
Source text: as §1

MMP-3 (stromelysin), sequence (P08254 100-477): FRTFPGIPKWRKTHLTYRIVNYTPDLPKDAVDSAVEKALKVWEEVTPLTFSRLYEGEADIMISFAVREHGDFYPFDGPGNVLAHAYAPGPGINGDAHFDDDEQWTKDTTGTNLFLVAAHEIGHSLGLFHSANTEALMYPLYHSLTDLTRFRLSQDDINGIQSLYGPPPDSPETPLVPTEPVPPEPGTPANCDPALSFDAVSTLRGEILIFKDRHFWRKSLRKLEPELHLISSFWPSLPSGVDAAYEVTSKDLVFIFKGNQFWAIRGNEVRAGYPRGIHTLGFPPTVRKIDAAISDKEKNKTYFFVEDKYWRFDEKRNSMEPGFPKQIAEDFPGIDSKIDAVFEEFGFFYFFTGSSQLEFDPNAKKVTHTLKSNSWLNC
T1 sequence (P14780 94-707): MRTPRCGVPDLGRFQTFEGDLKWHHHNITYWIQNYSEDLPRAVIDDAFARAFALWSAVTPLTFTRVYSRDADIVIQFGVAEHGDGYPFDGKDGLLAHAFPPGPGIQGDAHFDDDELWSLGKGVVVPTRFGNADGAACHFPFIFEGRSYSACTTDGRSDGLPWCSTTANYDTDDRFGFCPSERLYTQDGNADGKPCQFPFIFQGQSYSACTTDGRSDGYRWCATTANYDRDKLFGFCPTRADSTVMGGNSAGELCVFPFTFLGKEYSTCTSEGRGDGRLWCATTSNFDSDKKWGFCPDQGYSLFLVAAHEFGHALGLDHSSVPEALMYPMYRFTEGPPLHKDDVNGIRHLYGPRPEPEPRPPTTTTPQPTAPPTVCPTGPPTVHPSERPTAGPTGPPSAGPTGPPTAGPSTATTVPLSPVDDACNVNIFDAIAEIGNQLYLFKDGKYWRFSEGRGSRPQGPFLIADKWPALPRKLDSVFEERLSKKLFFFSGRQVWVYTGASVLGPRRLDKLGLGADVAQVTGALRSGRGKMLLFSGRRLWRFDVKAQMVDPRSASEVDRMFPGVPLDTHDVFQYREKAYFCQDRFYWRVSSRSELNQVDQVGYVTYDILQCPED

Compound | pIC50 [1] | pIC50 [2] | pIC50 [3] | pIC50 [4] | pIC50 [5] | pIC50 [6]
Cc1ccc(S(=O)(=O)N[C@@H](CC(=O)c2ccc3oc4ccccc4c3c2)C(=O)O)cc1 [Example 14, (S) -4-Dibenzofuran-2-yl-4-oxo-2-(4-methylphenylsulfonylamino)-butyric acid] |  | 6.59 | 5.96 |  | 7.77 | 4.08
CC(Oc1ccccc1)C(=O)NC(CC(=O)c1ccc2oc3ccccc3c2c1)C(=O)O (stereo not shown) [Example 30, 4-Dibenzofuran-2-yl-4-oxo-2-(2-phenoxy-propionylamino)-butyric acid] |  | 7.00 | 5.54 |  | 7.46 | 4.35
CCCCOc1ccc(C(=O)NC(CC(=O)c2ccc3oc4ccccc4c3c2)C(=O)O)cc1 (stereo not shown) [Example 37, 2-(4-Butoxy-benzoylamino)-4-dibenzofuran-2-yl-4-oxo-butyric acid] |  | 5.30 | 4.24 |  | 6.10 | 
O=C(CC(NC(=O)C1CC1)C(=O)O)c1ccc2oc3ccccc3c2c1 (stereo not shown) [Example 38, 2-(Cyclopropanecarbonyl-amino)-4-dibenzofuran-2-yl-4-oxo-butyric acid] |  | 6.07 | 5.25 |  | 7.05 | 
O=C(CC(NC(=O)c1ccco1)C(=O)O)c1ccc2oc3ccccc3c2c1 (stereo not shown) [Example 41, 4-Dibenzofuran-2-yl-2-[(furan-2-carbonyl)-amino]-4-oxo-butyric acid] |  | 5.82 | 4.92 |  | 6.85 | 
O=C(CC(NC(=O)c1ccc(F)cc1)C(=O)O)c1ccc2oc3ccccc3c2c1 (stereo not shown) [Example 43, 4-Dibenzofuran-2-yl-2-(4-fluoro-benzoylamino)-4-oxo-butyric acid] |  | 6.18 | 5.15 |  | 7.15 | 
O=C(CC(NC(=O)c1cnc2ccccc2n1)C(=O)O)c1ccc2oc3ccccc3c2c1 (stereo not shown) [Example 44, 4-Dibenzofuran-2-yl-4-oxo-2-[(quinoxaline-2-carbonyl)-amino]-butyric acid] |  | 5.46 | 4.57 |  | 6.51 | 
COc1ccc(C(=O)NC(CC(=O)c2ccc3oc4ccccc4c3c2)C(=O)O)cc1 (stereo not shown) [Example 46, 4-Dibenzofuran-2-yl-2-(4-methoxy-benzoylamino)-4-oxo-butyric acid] |  | 6.00 | 4.96 |  | 6.85 | 
COc1ccc(C(=O)NC(CC(=O)c2ccc3oc4ccccc4c3c2)C(=O)O)cc1OC (stereo not shown) [Example 47, 4-Dibenzofuran-2-yl-2-(3,4-dimethoxy-benzoylamino)-4-oxo-butyric acid] |  | 6.06 | 5.06 |  | 6.89 | 
O=C(CC(NC(=O)C1CCCCC1)C(=O)O)c1ccc2oc3ccccc3c2c1 (stereo not shown) [Example 50, 2-(Cyclohexanecarbonyl-amino)-4-dibenzofuran-2-yl-4-oxo-butyric acid] |  | 6.15 | 5.04 |  | 6.82 | 
O=C(CC(NC(=O)c1cccs1)C(=O)O)c1ccc2oc3ccccc3c2c1 (stereo not shown) [Example 51, 4-Dibenzofuran-2-yl-4-oxo-2-[(thiophene-2-carbonyl)-amino]-butyric acid] |  | 5.89 | 4.80 |  | 6.80 | 
O=C(Cc1cccs1)NC(CC(=O)c1ccc2oc3ccccc3c2c1)C(=O)O (stereo not shown) [Example 52, 4-Dibenzofuran-2-yl-4-oxo-2-(2-thiophen-2-yl-acetylamino)-butyric acid] |  | 5.11 | 4.32 |  | 5.60 | 
CCC(C(=O)NC(CC(=O)c1ccc2oc3ccccc3c2c1)C(=O)O)c1ccccc1 (stereo not shown) [Example 54, 4-Dibenzofuran-2-yl-4-oxo-2-(2-phenylbutyrylamino)-butyric acid] |  | 6.60 | 5.82 |  | 7.22 | 

More lines, in order of rising pIC50 [2], values ahead:

pIC50 [1] | pIC50 [2] | pIC50 [3] | pIC50 [4] | pIC50 [5] | pIC50 [6] | Compound
 | 4.85 | 4.15 |  | 5.74 |  | Cc1nn(-c2ccccc2)nc1C(=O)NC(CC(=O)c1ccc2oc3ccccc3c2c1)C(=O)O (stereo not shown) [Example 55, 4-Dibenzofuran-2-yl-2-[(5-methyl-2-phenyl-2H-[1,2,3]triazole-4-carbonyl)-amino]-4-oxo-butyric acid]
 | 5.82 | 4.70 |  | 6.49 |  | O=C(CC(NC(=O)c1ccc(C(F)(F)F)cc1)C(=O)O)c1ccc2oc3ccccc3c2c1 (stereo not shown) [Example 48, 4-Dibenzofuran-2-yl-4-oxo-2-(4-trifluoromethyl-benzoylamino)-butyric acid]
 | 5.89 | 4.77 |  | 6.74 |  | O=C(CC(NC(=O)c1ccc(Br)cc1)C(=O)O)c1ccc2oc3ccccc3c2c1 (stereo not shown) [Example 42, 2-(4-Bromo-benzoylamino)-4-dibenzofuran-2-yl-4-oxo-butyric acid]
 | 5.92 | 4.92 |  | 6.82 |  | O=C(CC(NC(=O)c1ccc(Cl)cc1)C(=O)O)c1ccc2oc3ccccc3c2c1 (stereo not shown) [Example 39, 2-(4-Chloro-benzoylamino)-4-dibenzofuran-2-yl-4-oxo-butyric acid]
 | 6.00 | 4.82 |  | 6.96 |  | O=C(CC(NC(=O)c1ccccn1)C(=O)O)c1ccc2oc3ccccc3c2c1 (stereo not shown) [Example 45, 4-Dibenzofuran-2-yl-4-oxo-2-[(pyridine-2-carbonyl)-amino]-butyric acid]
 | 6.00 | 5.04 |  | 6.89 |  | O=C(CC(NC(=O)c1ccc2c(c1)OCO2)C(=O)O)c1ccc2oc3ccccc3c2c1 (stereo not shown) [Example 53, 2-[(Benzo[1,3)dioxole-5-carbonyl)-amino]-4-dibenzofuran-2-yl-4-oxo-butyric acid]
< 4.00 | 6.02 | 5.55 | < 4.00 | 7.23 |  | O=C(C[C@H](NC(=O)C(F)(F)F)C(=O)O)c1ccc2oc3ccccc3c2c1 [Example 1, (S)-4-Dibenzofuran-2-yl-4-oxo-2-(2,2,2-trifluoroacetylamino)-butyric acid]
 | 6.46 | 5.36 |  | 7.10 |  | O=C(CC(NC(=O)C1CCCC1)C(=O)O)c1ccc2oc3ccccc3c2c1 (stereo not shown) [Example 49, 2-(Cyclopentanecarbonyl-amino)-4-dibenzofuran-2-yl-4-oxo-butyric acid]
